Residue numbers refer to the chain shown, from its start. Entries after “also recorded” stand apart in the source; their conditions may differ. Where two headings read alike, the source gives them in different places.
Key:
wild-type hVDR [1] = target: T1, wild-type hVDR (Homo sapiens, UniProt P11473); format: cell-based; details: HEK293T
T1 sequence (P11473 127-423 limits assumed): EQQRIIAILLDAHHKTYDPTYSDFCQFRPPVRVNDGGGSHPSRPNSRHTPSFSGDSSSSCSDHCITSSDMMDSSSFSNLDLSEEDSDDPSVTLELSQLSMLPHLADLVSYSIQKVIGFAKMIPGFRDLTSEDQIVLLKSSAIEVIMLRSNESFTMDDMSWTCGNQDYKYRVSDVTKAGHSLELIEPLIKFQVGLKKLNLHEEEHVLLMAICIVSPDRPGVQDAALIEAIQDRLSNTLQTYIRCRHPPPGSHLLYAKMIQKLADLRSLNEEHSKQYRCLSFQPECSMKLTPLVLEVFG

hVDR mutant H305F [2] = target: T2, hVDR mutant H305F (Homo sapiens, UniProt P11473, H305F); format: cell-based; details: HEK293T
T2 sequence (P11473 127-423 H305F limits assumed): T1 sequence (P11473 127-423 limits assumed) with H179F

hVDR mutant H305Y [3] = target: T3, hVDR mutant H305Y (Homo sapiens, UniProt P11473, H305Y); format: cell-based; details: HEK293T
T3 sequence (P11473 127-423 H305Y limits assumed): T1 sequence (P11473 127-423 limits assumed) with H179Y

hVDR mutant H305F/H397Y [4] = target: T4, hVDR mutant H305F/H397Y (Homo sapiens, UniProt P11473, H305F/H397Y); format: cell-based
T4 sequence (P11473 127-423 H305F/H397Y limits assumed): T1 sequence (P11473 127-423 limits assumed) with H179F, H271Y

wild-type hVDR [5] = target: T5, wild-type hVDR (Homo sapiens, UniProt P11473); format: cell-based
T5 sequence (P11473 1-427): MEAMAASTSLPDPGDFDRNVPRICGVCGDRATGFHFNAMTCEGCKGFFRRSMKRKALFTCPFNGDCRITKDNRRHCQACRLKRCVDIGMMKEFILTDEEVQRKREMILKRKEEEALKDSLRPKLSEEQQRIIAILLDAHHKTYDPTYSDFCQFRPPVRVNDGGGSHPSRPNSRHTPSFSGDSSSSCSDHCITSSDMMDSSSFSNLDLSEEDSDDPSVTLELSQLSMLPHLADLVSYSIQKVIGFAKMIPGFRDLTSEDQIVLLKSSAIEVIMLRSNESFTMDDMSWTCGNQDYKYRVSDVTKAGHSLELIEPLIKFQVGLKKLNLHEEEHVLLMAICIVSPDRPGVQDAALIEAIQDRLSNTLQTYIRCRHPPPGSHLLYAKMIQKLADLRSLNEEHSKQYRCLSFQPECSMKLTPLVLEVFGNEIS

hVDR mutant H305F [6] = target: hVDR mutant H305F (Homo sapiens, UniProt P11473, H305F); assay: Chemical complementation, yeast PJ69-4A liquid quantitation growth assay; format: cell-based
Target sequence in this assay (P11473 127-423 H305F limits assumed): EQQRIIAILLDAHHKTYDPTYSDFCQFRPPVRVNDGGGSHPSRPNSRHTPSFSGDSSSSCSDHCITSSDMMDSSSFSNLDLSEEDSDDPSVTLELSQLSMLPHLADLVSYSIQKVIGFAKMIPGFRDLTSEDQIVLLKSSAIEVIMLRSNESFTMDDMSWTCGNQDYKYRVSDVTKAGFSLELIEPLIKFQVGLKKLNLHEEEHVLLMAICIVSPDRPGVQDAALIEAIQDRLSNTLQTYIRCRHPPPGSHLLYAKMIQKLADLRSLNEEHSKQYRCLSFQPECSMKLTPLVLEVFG
Target sequence in this assay (Q9Y6Q9 whole entry partner): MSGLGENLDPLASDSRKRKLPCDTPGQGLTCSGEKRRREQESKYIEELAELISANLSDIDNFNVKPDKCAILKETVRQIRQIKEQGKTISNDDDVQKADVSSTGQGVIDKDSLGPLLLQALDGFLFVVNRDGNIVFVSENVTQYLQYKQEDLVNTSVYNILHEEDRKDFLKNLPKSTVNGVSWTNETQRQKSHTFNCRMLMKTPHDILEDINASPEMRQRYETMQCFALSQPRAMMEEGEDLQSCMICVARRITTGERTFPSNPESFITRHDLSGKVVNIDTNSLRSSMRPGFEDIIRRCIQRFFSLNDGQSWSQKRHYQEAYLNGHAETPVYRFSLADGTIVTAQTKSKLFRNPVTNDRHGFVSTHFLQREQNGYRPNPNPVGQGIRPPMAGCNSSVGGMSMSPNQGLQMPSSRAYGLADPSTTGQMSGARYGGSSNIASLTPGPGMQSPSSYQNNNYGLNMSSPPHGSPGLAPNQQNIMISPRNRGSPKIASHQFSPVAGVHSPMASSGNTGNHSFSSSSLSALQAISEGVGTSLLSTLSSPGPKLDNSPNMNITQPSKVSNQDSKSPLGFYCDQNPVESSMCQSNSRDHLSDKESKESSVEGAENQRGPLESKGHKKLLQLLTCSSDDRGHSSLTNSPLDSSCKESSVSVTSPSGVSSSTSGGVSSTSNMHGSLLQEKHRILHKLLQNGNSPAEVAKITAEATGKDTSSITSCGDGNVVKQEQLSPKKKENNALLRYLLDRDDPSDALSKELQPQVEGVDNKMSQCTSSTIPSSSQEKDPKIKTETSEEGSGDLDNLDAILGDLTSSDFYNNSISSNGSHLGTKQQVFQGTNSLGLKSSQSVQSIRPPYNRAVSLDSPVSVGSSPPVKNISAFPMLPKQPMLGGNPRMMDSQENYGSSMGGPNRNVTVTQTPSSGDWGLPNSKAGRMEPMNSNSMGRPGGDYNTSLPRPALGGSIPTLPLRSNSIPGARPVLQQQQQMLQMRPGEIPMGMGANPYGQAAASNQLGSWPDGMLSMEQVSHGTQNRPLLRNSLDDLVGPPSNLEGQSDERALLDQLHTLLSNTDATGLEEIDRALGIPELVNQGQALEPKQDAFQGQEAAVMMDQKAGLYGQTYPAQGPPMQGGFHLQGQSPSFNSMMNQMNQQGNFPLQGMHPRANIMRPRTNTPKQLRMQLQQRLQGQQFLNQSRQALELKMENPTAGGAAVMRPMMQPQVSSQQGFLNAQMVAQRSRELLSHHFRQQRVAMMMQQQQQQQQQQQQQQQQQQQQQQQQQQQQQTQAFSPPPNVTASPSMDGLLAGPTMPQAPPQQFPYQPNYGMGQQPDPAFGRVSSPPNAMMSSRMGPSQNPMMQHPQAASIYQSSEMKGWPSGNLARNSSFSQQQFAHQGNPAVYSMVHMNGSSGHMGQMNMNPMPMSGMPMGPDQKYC

hVDR mutant H305Y [7] = target: hVDR mutant H305Y (Homo sapiens, UniProt P11473, H305Y); assay: as above; format: cell-based
Target sequence in this assay (P11473 127-423 H305Y limits assumed): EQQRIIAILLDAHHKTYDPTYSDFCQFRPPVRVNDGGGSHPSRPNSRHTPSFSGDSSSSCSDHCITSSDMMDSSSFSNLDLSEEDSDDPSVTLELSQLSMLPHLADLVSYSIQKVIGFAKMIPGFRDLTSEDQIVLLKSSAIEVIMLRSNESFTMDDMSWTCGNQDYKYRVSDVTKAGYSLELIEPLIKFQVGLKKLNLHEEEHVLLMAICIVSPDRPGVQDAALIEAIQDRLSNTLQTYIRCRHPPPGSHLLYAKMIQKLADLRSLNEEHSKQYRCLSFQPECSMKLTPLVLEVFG
Target sequence in this assay (Q9Y6Q9 whole entry partner): as the sequence (Q9Y6Q9 whole entry partner) above

hVDR mutant H305F/H397Y [8] = target: hVDR mutant H305F/H397Y (Homo sapiens, UniProt P11473, H305F/H397Y); details: adenine selective media (-ALW)
Target sequence in this assay (P11473 127-423 H305F/H397Y limits assumed): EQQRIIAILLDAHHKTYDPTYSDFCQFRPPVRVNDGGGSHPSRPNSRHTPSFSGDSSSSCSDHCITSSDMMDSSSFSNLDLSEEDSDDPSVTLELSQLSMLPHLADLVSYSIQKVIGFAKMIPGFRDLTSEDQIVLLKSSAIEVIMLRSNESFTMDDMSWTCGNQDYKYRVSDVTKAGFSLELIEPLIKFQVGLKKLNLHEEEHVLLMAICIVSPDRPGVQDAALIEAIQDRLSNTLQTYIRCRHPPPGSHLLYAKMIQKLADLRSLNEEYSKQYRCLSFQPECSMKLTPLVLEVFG
Target sequence in this assay (Q9Y6Q9 whole entry partner): as the sequence (Q9Y6Q9 whole entry partner) above

hVDR H305F = details: antagonist on wild-type hVDR; cited from earlier work
[9] = histidine selective media (data not shown)

| Structure (SMILES) | activation of receptor (in words) (wild-type hVDR [1]) | ligand concentration at which activation is displayed (hVDR mutant H305F [2]) [µM] | ligand concentration at which activation is displayed (hVDR mutant H305Y [3]) [µM] | lowest ligand concentration giving activation (hVDR mutant H305F/H397Y [4]; mammalian cell assays) [nM] | ligand-activated growth (in words) (wild-type hVDR [5]; Figure 2B, any ligand concentration) | ligand concentration at which activation is displayed (wild-type hVDR [1]) [µM] | ligand concentration at which activation is displayed (hVDR mutant H305F/H397Y [4]; HEK293T) [µM] | ligand-activated growth (in words) (wild-type hVDR [5]; adenine selective media (-ALW)) | ligand concentration at which growth is observed (wild-type hVDR [5]; histidine selective media (SC-HLW + 0.1 mM 3AT), OD 630) [µM] | ligand concentration at which growth is observed (hVDR mutant H305F [6]; adenine selective media (-ALW)) [µM] | ligand concentration at which growth is observed (hVDR mutant H305F [6]; [9]) [µM] | ligand concentration at which growth is observed (hVDR mutant H305Y [7]; adenine selective media (-ALW)) [µM] | ligand concentration at which growth is observed (hVDR mutant H305Y [7]; [9]) [µM] | ligand concentration at which growth/activation is observed (hVDR mutant H305F/H397Y [8]) [µM] | functional character with the H305F mutation (in words) (hVDR H305F) |
| --- | --- | --- | --- | --- | --- | --- | --- | --- | --- | --- | --- | --- | --- | --- | --- |
| C=C1CC[C@H](O)C/C1=C/C=C1\CCC[C@]2(C)[C@@H]([C@H](C)CCCC(C)C)CC[C@@H]12 [Cholecalciferol, cholecalciferol] | does not activate; also recorded: no activation | 1 | 1 | 100 | No ligand activated growth; also recorded: not observed |  |  |  |  |  |  |  |  |  |  |
| C[C@H](CCC(=O)O)[C@H]1CC[C@H]2[C@@H]3CC[C@@H]4C[C@H](O)CC[C@]4(C)[C@H]3CC[C@]12C [Lithocholic Acid, lithocholic acid] |  |  | 1 |  |  | 100 | 1 | no growth | 10 | 1 | 0.1 | 1 | 0.1 | 1 |  |
| C=C1C[C@H](C[C@@H](C)[C@H]2CC[C@H]3/C(=C/C=C4/C[C@@H](O)C[C@H](O)C4=C)CCC[C@]23C)OC1=O [MK, (23S)-25-dehydro-1alpha(OH)-vitamin D3-26,23-lactone] |  |  |  |  |  |  |  |  |  |  |  |  |  |  | superagonist |

Reference: paper PMC3105188 (The Journal of steroid biochemistry and molecular biology, 2011)
